From patent US6872557B1, “Gene encoding novel human secretory phospholipase A2” (Shionogi & Co., Ltd., priority 1999, dated 2005)

How the values were obtained:
[1] = target: IB type secretory type PLA2 (Homo sapiens, UniProt P04054); conditions: already reported, Yokota et al., Biochim. Biophys. Acta (1999) 1438, 213-222; cited from earlier work
[2] = target: T1, human IIA type secretory PLA2 (Homo sapiens, UniProt P14555); assay: Inhibition of secretory PLA2 activity, release of 14C-oleic acid from 14C-POPC; type: biochemical; conditions: 14C-POPC substrate, 40° C., 60 min, various concentrations of Indoxam; FIG. 4
T1 sequence (P14555 21-144): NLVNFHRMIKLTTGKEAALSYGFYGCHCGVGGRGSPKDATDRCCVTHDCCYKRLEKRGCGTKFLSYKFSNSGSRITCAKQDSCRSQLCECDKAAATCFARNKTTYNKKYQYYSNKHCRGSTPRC
Protocol: (§1) Inhibitory activity against this novel type of human secretory type PLA2 was determined with Indoxam that is a 1-oxamoylindolidine derivative. It has already been reported that Indoxam inhibits the enzymatic activities of IIA type and IB type secretory type PLA2 (Yokota et al., Biochim. Biophys. Acta (1999) 1438, 213-222). The PLA2 activities were determined by the measurement of the quantity of released ^14C-oleic acid from ^14C-labeled 1-palmitoyl-2-oleoyl-phosphatidylcholine (POPC), according to the Draheim et al.'s method (J. Med. Chem., (1996) 39, 5159-5175). In the solution composed of 50 mM Tris-HCl (pH 8.0), 200 mM NaCl, 2 mM CaCl2, and 1 mg/ml bovine serum albumin, the substrates composed of 1 mM POPC (the mixture of about 100,000 cpm ^14C-POPC and unlabeled POPC) and 3 mM deoxycholic acid were incubated with each secretory PLA2 in the presence of various concentrations of Indoxam at 40° C. for 60 min. Then, the quantity of released ^4C-oleic acid was measured. Purified materials were used in the case with human IB type (2 ng), IIA type (10 ng) and X type (4 ng). Human V type, IID type and the secretory type PLA2 of this invention (IIE type) were prepared from the culture supernatant of CHO cells that stably express them.
(§2) The quantity of released ^14C-oleic acid from ^14C-POPC by each human secretory type PLA2 in the absence of Indoxam was regarded as 100% and the quantity of released ^14C-oleic acid in the presence of each concentration of Indoxam was shown as %.

[3] = target: T2, human secretory type PLA2 of this invention (IIE type) (Homo sapiens, UniProt Q9NZK7); assay: as above; type: biochemical; conditions: 14C-POPC substrate, 40° C., 60 min, various concentrations of Indoxam; FIG. 4
T2 construct: made in house
T2 sequence (Q9NZK7 20-142): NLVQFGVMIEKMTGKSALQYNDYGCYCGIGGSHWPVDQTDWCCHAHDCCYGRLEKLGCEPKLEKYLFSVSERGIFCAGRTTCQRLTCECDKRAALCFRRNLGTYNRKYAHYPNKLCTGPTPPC
Protocol: as §1, §2

[4] = target: T3, human IID type secretory PLA2 (Homo sapiens, UniProt Q9UNK4); assay: as above; type: biochemical; conditions: 14C-POPC substrate, 40° C., 60 min, various concentrations of Indoxam; FIG. 4
T3 construct: made in house
T3 sequence (Q9UNK4 21-145): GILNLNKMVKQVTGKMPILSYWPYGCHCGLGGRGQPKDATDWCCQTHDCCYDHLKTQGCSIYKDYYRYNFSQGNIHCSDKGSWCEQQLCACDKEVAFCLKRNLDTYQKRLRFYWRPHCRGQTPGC
Protocol: as §1, §2

[5] = target: T4, IIA type secretory type PLA2 (Homo sapiens, UniProt P14555); conditions: already reported, Yokota et al., Biochim. Biophys. Acta (1999) 1438, 213-222; cited from earlier work
T4 sequence (P14555 21-144): T1 sequence (P14555 21-144)

Chain of IB type secretory type PLA2 (P04054 23-148): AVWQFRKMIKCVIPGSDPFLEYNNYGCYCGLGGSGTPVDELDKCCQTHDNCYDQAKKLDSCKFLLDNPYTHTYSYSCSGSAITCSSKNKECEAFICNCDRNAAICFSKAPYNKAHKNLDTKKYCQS

CCc1c(C(=O)C(N)=O)c2c(OCC(=O)O)cccn2c1Cc1ccccc1-c1ccccc1 [Indoxam]
inhibition of enzymatic activity of IB type secretory type PLA2 [1]: inhibits | inhibition of enzymatic activity of human IIA type PLA2 [2]: strongly inhibits | inhibition of enzymatic activity of human PLA2 of this invention (IIE type) [3]: strongly inhibits | inhibition of enzymatic activity of human IID type PLA2 [4]: strongly inhibits | inhibition of enzymatic activity of IIA type secretory type PLA2 [5]: inhibits
